These results are taken from US20220025331A1, “METHODS AND SYSTEMS FOR IMPROVING CELLS FOR USE IN THERAPY” (priority 2017, published 2022).

In one assay the test system is P3 foAC neocartilage. Put plainly: Phase 2: cytochalasin D and hyaluronidase treatment of P3 (passaged, not redifferentiated) neocartilage. The assay is classed as cell-based, sheep. The conditions noted are these: P3, 2 million cells/construct; for construct diameter: Cyto D 2 μM first 48 hours, Hya 200 units/mL at seeding. Here is the method: (§1) Chondrocyte Isolation: Fetal ovine articular chondrocytes (foACs) were harvested from the patellofemoral surfaces of 120-day gestation Dorper cross sheep obtained as medical waste (UC Davis School of Veterinary Medicine). Cartilage from the whole surface of both condyles and the trochlear groove was minced into approximately 1 mm^3 pieces, then washed and centrifuged (500 G for 5 minutes) three times with Dulbecco's Modified Eagle Medium containing 4.5 g/L glucose and GlutaMAX (DMEM; Gibco) and 2% (v/v) penicillin/streptomycin/fungizone (PSF; Lonza). The tissue was digested in 0.2% (w/v) collagenase type II (Worthington) in DMEM containing 3% (v/v) fetal bovine serum (FBS; Atlanta Biologicals) for 18 hours at 37° C. with gentle rocking. After digestion, the resultant cell solutions were filtered through 70 μm cell strainers. For Studies 1-3, foACs were washed with ACK buffer (154.4 mM ammonium chloride (Sigma), 10 mM potassium bicarbonate (Fisher Scientific), 50 mM EDTA tetrasodium salt (Acros Organics) in ultrapure water for three minutes as previously described. These primary (P0) foACs were then frozen in DMEM with 20% (v/v) DMSO (Sigma) and 10% (v/v) FBS.
(§2) Chondrocyte Expansion and Redifferentiation: Previously frozen P0 foACs were seeded in T-225 flasks at 1.5×10^4 cells/cm^2 and expanded in chemically defined chondrogenic medium (CHG medium) (DMEM containing 1% PSF, 1% ITS+ premix (BD Biosciences), 1% non-essential amino acids (Gibco), 100 nM dexamethasone (Sigma), 50 mg/mL ascorbate-2-phosphate (Sigma), 40 g/mL L-proline (Sigma), and […] sodium pyruvate (Sigma)) with 2% FBS and chondrogenically tuned TFP supplementation (1 ng/mL TGF-μ1, 5 ng/mL bFGF, 10 ng/mL PDGF; al from PeproTech). Media was exchanged every 2-3 days. At confluence, cells were lifted with 0.5% Trypsin-EDTA (Gibco) for 5 minutes followed by digestion of the cell layers with DMEM containing 0.2% collagenase type II and 2% FBS for approximately 1 hour at 37° C., triturating every 20 minutes. The resulting cell solution was filtered through a 70 μm cell strainer and reseeded into T-225 flasks to achieve three passages (P3). P3 foACs underwent aggregate redifferentiation (P3R) as previously described. Briefly, 750,000 cells/mL CHG medium containing TGB supplementation (10 ng/mL TGF-β1, 100 ng/mL GDF-5, 100 ng/mL BMP-2; al from PeproTech) were cultured in 100 mm×20 mm petri dishes coated with 1% (w/v) molecular biology grade agarose (Thermo Fisher Scientific) made with phosphate buffered saline (PBS; Sigma) to create a non-adherent environment. Aggregate cultures were maintained on an orbital shaker at 60 rpm for the first 3 days and remained static for the remainder of the 14-day redifferentiation period. Media was exchanged every 2-3 days. At the end of the culture period, aggregates were digested with 0.5% Trypsin-EDTA for 20 minutes, followed by 0.2% collagenase in DMEM with 2% FBS for approximately 2 hours at 37° C., triturating every 20 minutes. Following dissociation of the aggregates, cells were filtered through a 70 μm cell strainer and counted.
(§3) Neocartilage Construct Seeding and Culture: P0, P3, or P3R foACs were self-assembled into engineered neocartilage constructs in non-adherent agarose wells. A sterile stainless steel mold consisting of 5 mm diameter cylindrical posts was inserted into a 48-well plate, each well containing 1 mL molten 2% (w/v) agarose to create a single agarose well per plate well. After solidification of the agarose at room temperature, the mold was removed. Agarose wells were filled with CHG medium exchanged twice over the course of 5 days to ensure saturation of the agarose before seeding. For each phase, cells were seeded into 5 mm agarose wells in 100 μL CHG medium per well. In Phase 1, P0 or P3R foACs were each seeded at five densities: 2, 3, 4, 5, and 6 million cells per construct. In Phase 2, P3 and P3R foACs were seeded at 2 million cells per construct. In Phase 3, 2 million P3R foACs were seeded. […]

Assay [1] has as its system P3R foAC neocartilage. Put plainly: Phase 2: cytochalasin D and hyaluronidase treatment of P3R (passaged, redifferentiated) neocartilage. The assay is classed as cell-based, sheep. The following applies: for neocartilage thickness / neocartilage wet weight / construct diameter: P3R Opt; for construct diameter: Cyto D 2 μM first 48 hours, Hya 200 units/mL at seeding. How it is done: as §1, §2, §3

Assay [2] relates to P3R foAC neocartilage. Put plainly: Phase 3: TCL treatment of cytochalasin D treated P3R Opt neocartilage. The assay is classed as cell-based, sheep. The conditions noted are these: Phase 3, P3R Opt, 2 million cells. Here is the method:
as §1
Chondrocyte Expansion and Redifferentiation: Previously frozen P0 foACs were seeded in T-225 flasks at 1.5×10^4 cells/cm^2 and expanded in chemically defined chondrogenic medium (CHG medium) (DMEM containing 1% PSF, 1% ITS+ premix (BD Biosciences), 1% non-essential amino acids (Gibco), 100 nM dexamethasone (Sigma), 50 mg/mL ascorbate-2-phosphate (Sigma), 40 g/mL L-proline (Sigma), and […] sodium pyruvate (Sigma)) with 2% FBS and chondrogenically tuned TFP supplementation (1 ng/mL TGF-μ1, 5 ng/mL bFGF, 10 ng/mL PDGF; al from PeproTech). Media was exchanged every 2-3 days. At confluence, cells were lifted with 0.5% Trypsin-EDTA (Gibco) for 5 minutes followed by digestion of the cell layers with DMEM containing 0.2% collagenase type II and 2% FBS for approximately 1 hour at 37° C., triturating every 20 minutes. […] Following dissociation of the aggregates, cells were filtered through a 70 μm cell strainer and counted. […]

A further assay relates to P3 and P3R foACs. Kind of assay: Chondrocyte F-actin visualization (phalloidin staining). The assay is classed as cell-based, sheep. How it is done:
Chondrocyte Actin Visualization: In Phase 2, to visualize the effects of cytochalasin D treatment on cytoskeletal-mediated chondrogenic redifferentiation, F-actin staining was performed on untreated P0 foACs and both cytochalasin D treated and untreated P3 and P3R foACs. Approximately 8×10^3 cells/cm^2 were allowed to attach to glass slides for 1 hour in the presence of 2% FBS. Non-adherent cells were washed away with two exchanges of PBS, followed by the fixation of attached cells in 3.9% formaldehyde in PBS for 10 minutes. After another two washes with PBS, fixed cells were permeabilized with 0.1% Triton-X 100 (Sigma) in PBS for 5 minutes. Following two washes with PBS, cells were stained with CF594-conjugated phalloidin (Biotium; 1200 dilution in PBS) for 30 minutes. Excess stain was washed away with two exchanges of PBS and the cells were counterstained with DAPI-containing Vectashield (Vector Laboratories) and coverslipped for visualization using a Texas Red fluorescent channel.

For assay [3], the system named is adult human costal chondrocytes (ahCCs). Put plainly: Cyto D treatment of self-assembled neocartilage from human costal chondrocytes (FIG. 18). The assay is classed as cell-based. The conditions noted are these: ahCCs P3 rejuvenated, 2 million cells, 2 μM at day 0-2. Here is the method:
Control constructs were untreated. Constructs treated with cytochalasin D (Cyto D) were treated with 2 μM at day 0-2. […] This example clearly illustrates that it is not obvious that a treatment that is beneficial for cells from one species will be beneficial when applied to cells from another species.

[4] abbreviates: P3R Opt neocartilage, over the untreated group.
[5] abbreviates: cytochalasin D treated P3R Opt neocartilage.
Where [6] appears, read: foACs P3 rejuvenated, 2 million cells, 2 μM at day 0-2, FIG. 18.

In the assay with P3 foAC neocartilage, `C=C1[C@@H](C)[C@H]2[C@H](Cc3ccccc3)NC(=O)[C@]23[C@H](OC(C)=O)/C=C/[C@@](C)(O)C(=O)[C@@H](C)C/C=C/[C@H]3[C@@H]1O` [cytochalasin D] came in with a neocartilage thickness of 0.4±0.1 mm, a neocartilage wet weight of 8.4 ± 1.0 mg and a construct diameter of 3.7±0.2 mm. For the same molecule, the “increase of aggregate modulus over the P0 control” value with P3R foAC neocartilage [1] (ACK treated P3R cells, 2 million cells/construct, vs untreated P0 control) worked out at 9.6 fold. The molecule also displayed a neocartilage aggregate modulus in the assay on P3R foAC neocartilage [1] (ACK treated P3R chondrocytes seeded at 2 million cells/construct) of 400 kPa. Moreover, in the assay with P3R foAC neocartilage [1] (setting [4]), the “increase in compressive stiffness (aggregate modulus)” value was 0.9 fold, the “increase in tensile stiffness” value was found to be 1.0 fold and the “increase in tensile strength” value is given as 2.7 fold. In the assay with P3R foAC neocartilage [1] (2 million cells/construct), this molecule came in with a neocartilage thickness of 0.7±0.1 mm, a neocartilage wet weight of 28.1 ± 2.6 mg and a construct diameter of 6.5±0.2 mm. In the assay on P3R foAC neocartilage [1] (P3R neocartilage, FIG. 8C), the GAG/wet weight result was “increased”. Also, in the assay with P3R foAC neocartilage [1] (setting [5]), the “functionality index (FI) with respect to native fetal cartilage” value is reported as 1.1 and the “functionality index (FI) with respect to native juvenile cartilage” value came out at 0.83. In the assay with P3R foAC neocartilage [1] (setting [6]), the compressive aggregate modulus result is listed as “significantly increased” and the shear modulus entry is recorded as “significantly increased”. In the assay with P3R foAC neocartilage [2], the neocartilage diameter is 6.5±0.4 mm, the neocartilage thickness worked out at 0.8±0.2 mm and the neocartilage wet weight came to 87.1 ± 3.6 mg. Moreover, the actin arrangement result in the assay with P3 and P3R foACs (P3R chondrocytes) was “localized more of the actin cortically than in untreated P3R cells”. In the assay on P3 and P3R foACs (P3 chondrocytes), the “cell shape and actin arrangement” value is given as “induced a rounded cell shape”. Moreover, in assay [3], the aggregate modulus result is “significantly decreased” and the shear modulus entry was “significantly decreased”.

In the assay with P3 foAC neocartilage, hyaluronidase gave a neocartilage thickness of 2.0±0.2 mm, a neocartilage wet weight of 6.7 ± 0.4 mg and a construct diameter of 2.6±0.1 mm. In the assay on P3R foAC neocartilage [1] (2 million cells/construct), this molecule registered a neocartilage thickness of 0.8±0.2 mm, a neocartilage wet weight of 23.9 ± 1.4 mg and a construct diameter of 5.9±0.0 mm.
